Assay results: US4916065A (priority 1988, dated 1990)

Assays:
[1] = test system: Klebsiella pneumoniae D11; experiment: Antibacterial MIC, serial agar dilution; assay type: cell-based; conditions: aerobic, nutrient agar
[2] = test system: Klebsiella pneumoniae A20680; experiment: Antibacterial MIC, serial agar dilution; assay type: cell-based; conditions: aerobic, nutrient agar, kanamycin-resistant
Escherichia coli A20665 = experiment: Antibacterial MIC, serial agar dilution; assay type: cell-based; conditions: aerobic, nutrient agar, kanamycin-resistant
[3] = test system: Aspergillus fumigatus IAM2034; experiment: Antifungal MIC, Sabouraud dextrose agar; assay type: cell-based
Micrococcus luteus 1001 = experiment: Antibacterial MIC, serial agar dilution; assay type: cell-based; conditions: aerobic, nutrient agar
[4] = test system: Staphylococcus aureus A20234; experiment: Antibacterial MIC, serial agar dilution; assay type: cell-based; conditions: aerobic, nutrient agar, kanamycin-resistant
P388 leukemia = experiment: Antitumor activity against P388 leukemia (ip); assay type: in vivo, mice; conditions: for Body weight change on day 4 / MST (median survival time) / T/C: QD × 3, ip
[5] = test system: Staphylococcus epidermidis A22152; experiment: Antibacterial MIC, serial agar dilution; assay type: cell-based; conditions: aerobic, nutrient agar, kanamycin-resistant
[6] = test system: Enterococcus faecalis A9612; experiment: Antibacterial MIC, serial agar dilution; assay type: cell-based; conditions: aerobic, nutrient agar
B16-F10 = experiment: In vitro cytotoxicity; assay type: cell-based, murine; conditions: Mus musculus, 72 hours, neutral red, 540 nm
Escherichia coli A9624 = experiment: Antibacterial MIC, serial agar dilution; assay type: cell-based; conditions: aerobic, nutrient agar, kanamycin-resistant
[7] = test system: Staphylococcus aureus Smith; experiment: Antibacterial MIC, serial agar dilution; assay type: cell-based; conditions: aerobic, nutrient agar
[8] = test system: Pseudomonas aeruginosa A9930; experiment: Antibacterial MIC, serial agar dilution; assay type: cell-based; conditions: aerobic, nutrient agar
[9] = test system: Serratia marcescens A20222; experiment: Antibacterial MIC, serial agar dilution; assay type: cell-based; conditions: aerobic, nutrient agar
[10] = test system: Staphylococcus aureus 209P; experiment: Antibacterial MIC, serial agar dilution; assay type: cell-based; conditions: aerobic, nutrient agar
Moser = experiment: In vitro cytotoxicity; assay type: cell-based; conditions: Homo sapiens; 72 hours, neutral red, 540 nm
fungi = experiment: In vitro antifungal activity, overall spectrum; assay type: cell-based; conditions: all organisms tested except Cryptococcus neoformans
[11] = test system: Staphylococcus aureus BX1633; experiment: Antibacterial MIC, serial agar dilution; assay type: cell-based; conditions: aerobic, nutrient agar, ampicillin-resistant
[12] = test system: Aspergillus flavus FA21436; experiment: Antifungal MIC, Sabouraud dextrose agar; assay type: cell-based
[13] = test system: Escherichia coli A20341-1; experiment: Antibacterial MIC, serial agar dilution; assay type: cell-based; conditions: A203411, aerobic, nutrient agar, ampicillin-resistant
[14] = test system: Cryptococcus neoformans IAM4514; experiment: Antifungal MIC, Sabouraud dextrose agar; assay type: cell-based
Escherichia coli Juhl = experiment: Antibacterial MIC, serial agar dilution; assay type: cell-based; conditions: aerobic, nutrient agar
[15] = test system: Peptostreptococcus anaerobius A21905; experiment: Antibacterial MIC, serial agar dilution; assay type: cell-based
[16] = test system: Clostridium perfringens A9635; experiment: microbe, parasite or virus in culture; assay type: cell-based
[17] = test system: Trichophyton mentagrophytes D155; experiment: Antifungal MIC, Sabouraud dextrose agar; assay type: cell-based
[18] = test system: Propionibacterium acnes A21933; experiment: Antibacterial MIC, serial agar dilution; assay type: cell-based; conditions: Cutibacterium acnes, anaerobic, GAM agar
Canidia albicans A9540 = experiment: Antifungal MIC, Sabouraud dextrose agar; assay type: cell-based
Canidia albicans IAM4888 = experiment: Antifungal MIC, Sabouraud dextrose agar; assay type: cell-based
[19] = test system: Fusarium moniliforme A2284; experiment: Antifungal MIC, Sabouraud dextrose agar; assay type: cell-based; conditions: Fusarium verticillioides
Solubility = assay type: physicochemical; conditions: organic solvents such as chloroform, methanol and ethanol
[20] = test system: Cryptococcus neoformans D49; experiment: Antifungal MIC, Sabouraud dextrose agar; assay type: cell-based
[21] = test system: Staphylococcus aureus A15097; experiment: Antibacterial MIC, serial agar dilution; assay type: cell-based; conditions: aerobic, nutrient agar, methicillin-resistant
[22] = test system: Enterobacter cloacae A9659; experiment: Antibacterial MIC, serial agar dilution; assay type: cell-based; conditions: aerobic, nutrient agar
Mucor spinosus IF05317 = experiment: Antifungal MIC, Sabouraud dextrose agar; assay type: cell-based
[23] = test system: Bacteroides fragilis A22534; experiment: Antibacterial MIC, serial agar dilution; assay type: cell-based
[24] = test system: Trichophyton mentagrophytes #4329; experiment: Antifungal MIC, Sabouraud dextrose agar; assay type: cell-based
[25] = test system: aerobic and anaerobic bacteria; assay type: cell-based
Escherichia coli NIHJ = experiment: Antibacterial MIC, serial agar dilution; assay type: cell-based; conditions: aerobic, nutrient agar

COC1=C(C(=O)O)C(C)C23OC24c2cc(OC(C)=O)c5c(c2NC3C#C/C=C\C#CC14)C(=O)c1c(OC(C)=O)ccc(OC(C)=O)c1C5=O (centres unmarked) [BU-3420T acetate]
MIC [1]: 0.8 ng/mL | MIC [2]: 13 ng/mL | MIC (Escherichia coli A20665): 13 ng/mL | MIC [3]: < 50 ng/mL | MIC (Micrococcus luteus 1001): 0.2 ng/mL | MIC [4]: 0.0063 ng/mL | Body weight change on day 4 (P388 leukemia; 0.5 mg/kg/day): -0.5 g | MST (median survival time) (P388 leukemia; 0.5 mg/kg/day): 13.5 days | T/C (P388 leukemia; 0.5 mg/kg/day): 135% | Body weight change on day 4 (P388 leukemia; 1.0 mg/kg/day): -0.8 g | MST (median survival time) (P388 leukemia; 1.0 mg/kg/day): 11.0 days | T/C (P388 leukemia; 1.0 mg/kg/day): 110% | maximum T/C value (P388 leukemia; P388, ip, QD × 3): 135% | MIC [5]: 0.013 ng/mL | MIC [6]: 0.1 ng/mL | IC50 (B16-F10): 0.7 ng/mL | MIC (Escherichia coli A9624): 6.3 ng/mL | MIC [7]: 0.0063 ng/mL | MIC [8]: 6.3 ng/mL | MIC [9]: 6.3 ng/mL | MIC [10]: 0.0063 ng/mL | IC50 (Moser): 0.003 ng/mL | antifungal activity versus amphotericin B (fungi): significantly more potent than amphotericin B | MIC [11]: 0.0063 ng/mL | MIC [12]: 400 ng/mL | MIC [13]: 25 ng/mL | MIC [14]: 800 ng/mL | MIC (Escherichia coli Juhl): 6.3 ng/mL | MIC [15]: 25 ng/mL | MIC [16]: 13 ng/mL | MIC [17]: 400 ng/mL | MIC [18]: 13 ng/mL | MIC (Canidia albicans A9540): 200 ng/mL | MIC (Canidia albicans IAM4888): 400 ng/mL | MIC [19]: < 50 ng/mL | solubility in organic solvents compared with BU-3420T (Solubility): much improved solubility | MIC [20]: 800 ng/mL | MIC [21]: 0.0063 ng/mL | MIC [22]: 6.3 ng/mL | MIC (Mucor spinosus IF05317): 200 ng/mL | MIC [23]: 50 ng/mL | MIC [24]: 800 ng/mL | activity against Gram-negative organisms ([25]; Gram-negative organisms, versus Gram-positive): a little less susceptible | activity against Gram-positive aerobic bacteria ([25]; Gram-positive aerobic bacteria): intensely potent activity | activity against anaerobic Gram-positive and negative bacteria versus clindamycin ([25]; anaerobic bacteria): much more active than clindamycin | activity against certain kanamycin- and clindamycin-resistant bacteria ([25]; kanamycin- and clindamycin-resistant bacteria): susceptible to both compounds | MIC (Escherichia coli NIHJ): 6.3 ng/mL
